# Source: BindingDB's records for doi:10.1074/jbc.M109.039511 (University of Florida, 2010)
# Counter-ions that a name gives are not always drawn.
# Molecular target: T1, Acid phosphatase (Francisella tularensis subsp. tularensis (strain SCHU S4 / Schu 4), UniProt Q5NIC0)
# T1 sequence (Q5NIC0 whole entry): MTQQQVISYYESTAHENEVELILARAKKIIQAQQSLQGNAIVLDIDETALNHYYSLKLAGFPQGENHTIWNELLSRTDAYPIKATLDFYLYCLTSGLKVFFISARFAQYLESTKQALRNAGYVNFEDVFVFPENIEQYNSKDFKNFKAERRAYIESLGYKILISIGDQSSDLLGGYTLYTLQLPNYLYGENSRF
# Assay: Inhibitor Screening Assay
# Description: The inhibitor screening assays were performed in 96-well format with 1152 small molecules found in the Prestwick chemical library (Prestwick Chemical, France).
row,SMILES,Ki [µM]
1,COc1ccc(CC2c3cc(OC)c(OC)cc3CC[N+]2(C)CCC(=O)OCCCCCOC(=O)CC[N+]2(C)CCc3cc(OC)c(OC)cc3C2Cc2ccc(OC)c(OC)c2)cc1OC (stereo not drawn),342
2,OC[C@H](O)c1oc(O)c(O)c1O [ascorbic acid],380
3,CCN(CC)CCNC(=O)c1ccc(N)cc1 [4-amino-N-[2-(diethylamino)ethyl]benzamide;hydrochloride],14.8
4,CCCCCCCCCCCCCCCC[N+](C)(C)CCN(Cc1ccc(OC)cc1)c1ncccn1 [SMR001233380],0.59
5,O=c1c(O)c(-c2cc(O)c(O)c(O)c2)oc2cc(O)cc(O)c12,154
6,"CC1(C)OC[C@@H]([C@H]2OC(=O)C(=O)C2O)O1 (stereo partly drawn) [(+)-5,6-O-Isopropylidene-L-ascorbic acid]",3.27
7,O=C1OC(C(O)CO)=C(O)C1OP(=O)(O)O [2-phospho-L-ascorbic acid],0.32
8,O=c1c(O)c(-c2ccc(O)cc2)oc2cc(O)cc(O)c12,190
